Test results from patent publication US20090143279A1 (priority 2007, published 2009).
Where a name gives a salt, the structure may show the parent alone. Read-outs that look alike come from different tables or passages of the source.

Assays:
[1] = system: cellular dehydrogenase activity
[2] = system: mitochondrial membrane potential; assay type: cell-based, mouse
mtOXPHOS transcripts = assay type: cell-based, mouse
OXPHOS gene expression = assay type: cell-based, mouse; settings: for OXPHOS expression: primary screen, in words; for dose at which OXPHOS expression increased: retest at 20 nM to 20 μM, FIG. 6a
nuOXPHOS transcripts = assay type: cell-based, mouse
reactive oxygen species = assay type: cell-based, mouse; settings: for ROS levels: primary screen, in words; for dose at which ROS levels decreased: retest at 20 nM to 20 μM, FIG. 6a
cytochrome c = assay type: cell-based, mouse
[3] = composite Z-score vs DMSO, Conc 20 μM
[4] = composite Z-score vs mock-treated (DMSO) wells, Conc 20 μM
[5] = composite Z-score vs DMSO wells, Conc 20 μM
[6] = Table 7, C2C12 myotubes, 48 h, composite Z-score
[7] = Table 3, differentiated C2C12 myotubes, 48 h treatment, composite Z-score vs DMSO
[8] = Table 5, C2C12 myotubes, 48 h, composite Z-score

`CC12CCC3c4ccc(OCc5ccccc5)cc4CCC3C1C[C@@H](O)[C@@H]2O` (some centres unmarked) [estriol benzyl ether] was tested, and the “MTT (composite Z-score vs DMSO mock-treated wells)” value [1] was 2.975, the “ΔΨm (composite Z-score vs DMSO mock-treated wells)” value [2] was 3.459 and the “mitoOX (composite Z-score, mtDNA-encoded OXPHOS expression)” value (mtOXPHOS transcripts) was −0.574. The “GE-HTS (composite Z-score, OXPHOS gene expression)” value (OXPHOS gene expression) was −0.114, the “Viability (composite Z-score vs DMSO mock-treated wells)” value (C2C12 myotubes) was 0.551 and the “nucOX (composite Z-score, nuclear-encoded OXPHOS expression)” value (nuOXPHOS transcripts) was 0.122. The “ROS (composite Z-score vs DMSO mock-treated wells)” value (reactive oxygen species) was −0.504.
Compound `CCOC(=O)c1c(C)cc(OC)cc1O` [ethyl everninate] has an MTT [1, 3] of −1.302, a cyt c (cytochrome c; [3]) of 0.122 and a ΔΨm [2, 3] of −0.860. It also gave a mitoOX (mtOXPHOS transcripts; [3]) of −0.980, a GE-HTS (OXPHOS gene expression; [3]) of −0.428 and a nucOX (nuOXPHOS transcripts; [3]) of −0.131. The ROS (reactive oxygen species; [3]) was 0.125.
`COC(=O)C[C@H]1C(C)(C)[C@@H](OC(C)=O)[C@@H]2CC3=C4CC(=O)O[C@@H](c5ccoc5)[C@]4(C)CC[C@@H]3[C@@]1(C)C2=O` [fissinolide] was tested, and the cyt c (cytochrome c; [4]) was −0.167, the ΔΨm [2, 4] was −0.324 and the mitoOX (mtOXPHOS transcripts; [4]) was 0.777. The GE-HTS (OXPHOS gene expression; [4]) was 0.534, the Viability (C2C12 myotubes; [4]) was 0.060 and the nucOX (nuOXPHOS transcripts; [4]) was 0.385. It also gave an ROS (reactive oxygen species; [4]) of 0.475.
In the case of `CC[N+](CC)(CC)CCOc1cccc(OCC[N+](CC)(CC)CC)c1OCC[N+](CC)(CC)CC` [gallamine], the MTT [1, 5] is reported as −1.683, the cyt c (cytochrome c) is reported as 0.036 and the cyt c (cytochrome c; [5]) is reported as −0.492. For the same compound, the ΔΨm [2, 5] was −0.882, the mitoOX (mtOXPHOS transcripts; [5]) was 0.843 and the GE-HTS (OXPHOS gene expression; [5]) was 0.057. For the same compound, the nucOX (nuOXPHOS transcripts; [5]) was −0.292 and the ROS (reactive oxygen species; [5]) was 1.259.
With `CC(C)=CCC[C@]1(C)C=Cc2c(O)c3c(c(CC=C(C)C)c2O1)O[C@]12C(=C[C@@H]4CC1C(C)(C)O[C@@]2(C/C=C(/C)C(N)=O)C4=O)C3=O` [gambogic acid amide, reference compound] the “mito-OXPHOS Z” value (mtOXPHOS transcripts; [6]) was −2.68 and the “nucOXPHOS Z” value (nuOXPHOS transcripts; [6]) was −4.01.
In the case of `CC(=O)O[C@@H]1CC2C(C)(C)[C@H](O)C=C[C@]2(C)C2CC[C@@]3(C)[C@H](c4ccoc4)OC(=O)C4OC43[C@@]21C` (some centres unmarked) [gedunol], the MTT [1, 4] is reported as −1.248, the ΔΨm [2, 4] is reported as 0.897 and the mitoOX (mtOXPHOS transcripts; [4]) is reported as −1.174. The GE-HTS (OXPHOS gene expression; [4]) was −1.545, the Viability (C2C12 myotubes; [4]) was 0.438 and the nucOX (nuOXPHOS transcripts; [4]) was −1.561. It also gave an ROS (reactive oxygen species; [4]) of 0.132.
`Cc1c(O)cc(O)c2c(=O)c(-c3ccc(O)cc3)coc12` [genistein, 8-methyl] was tested, and the “MTT (composite Z-score)” value [1] was −1.035, the “ΔΨm (composite Z-score)” value [2] was −0.404 and the “mitoOX (composite Z-score)” value (mtOXPHOS transcripts) was 0.023. For the same compound, the “GE-HTS (composite Z-score)” value (OXPHOS gene expression) was 0.247, the “Viability (composite Z-score)” value (C2C12 myotubes) was −0.071 and the “nucOX (composite Z-score)” value (nuOXPHOS transcripts) was 0.353. For the same compound, the “ROS (composite Z-score)” value (reactive oxygen species) was 1.016.
With `CC(=O)O[C@@H]1CC2C(C)(C)C=CC(=O)[C@]2(C)C2CC[C@@]3(C)[C@H](c4ccoc4)OC(=O)C4OC43[C@@]21C` (some centres unmarked) [isogedunin] the MTT [1, 4] was −1.716, the cyt c (cytochrome c; [4]) was 0.050 and the ΔΨm [2, 4] was −0.489. For the same compound, the mitoOX (mtOXPHOS transcripts; [4]) was 0.523, the GE-HTS (OXPHOS gene expression; [4]) was 0.805 and the Viability (C2C12 myotubes; [4]) was 0.404. The nucOX (nuOXPHOS transcripts; [4]) was 0.883.
`CON` [methoxyamine] gave an MTT [1, 5] of −1.833, a cyt c (cytochrome c; [5]) of 0.749 and a ΔΨm [2, 5] of −0.754. The mitoOX (mtOXPHOS transcripts; [5]) was −1.494, the GE-HTS (OXPHOS gene expression; [5]) was −1.274 and the nucOX (nuOXPHOS transcripts; [5]) was −1.049. For the same compound, the ROS (reactive oxygen species; [5]) was 0.751.
Work on `Cc1cc(C(C)(C)CC(C)(C)C)ccc1OCCOCC[N+](C)(C)Cc1ccccc1` [methylbenzethonium] yielded an MTT [1] of −5.614, a ΔΨm [2] of −4.202 and a mitoOX (mtOXPHOS transcripts) of −1.043. For the same compound, the GE-HTS (OXPHOS gene expression) was −1.868, the Viability (C2C12 myotubes) was −4.580 and the nucOX (nuOXPHOS transcripts) was −2.103. For the same compound, the ROS (reactive oxygen species) was −3.108.
`CC[C@@]1([C@@H]2O[C@@H]([C@H]3O[C@@](O)(CO)[C@H](C)C[C@@H]3C)C[C@@H]2C)CC[C@H]([C@]2(C)CC[C@]3(C[C@H](O)[C@@H](C)[C@@H]([C@@H](C)[C@@H](OC)[C@H](C)C(=O)O)O3)O2)O1` [monensin, reference compound] was tested, and the “mito-OXPHOS Z” value (mtOXPHOS transcripts; [6]) was −4.13 and the “nucOXPHOS Z” value (nuOXPHOS transcripts; [6]) was 0.70.
With `COc1cc([C@@H]2c3cc4c(cc3[C@H](O)[C@H]3COC(=O)[C@H]23)OCO4)cc(OC)c1OC` [podofilox, reference compound] the “mito-OXPHOS Z” value (mtOXPHOS transcripts; [6]) was 1.28, the GEHTS_Zscore (OXPHOS gene expression; [7]) was 3.408 and the OXPHOS expression (OXPHOS gene expression) was “boost OXPHOS expression”. For the same compound, the “dose at which OXPHOS expression increased” value (OXPHOS gene expression) was 2 µM, the “nucOXPHOS Z” value (nuOXPHOS transcripts; [6]) was 2.53 and the “ROS Zscore” value (reactive oxygen species; [7]) was −1.436. The ROS levels (reactive oxygen species) was “suppressing ROS levels” and the “dose at which ROS levels decreased” value (reactive oxygen species) was 2 µM.
Work on `NCCCCN` [putrescine] yielded an MTT [1] of −0.806, a cyt c (cytochrome c) of 0.897 and a mitoOX (mtOXPHOS transcripts) of −0.684. For the same compound, the GE-HTS (OXPHOS gene expression) was −0.341, the Viability (C2C12 myotubes) was −0.586 and the nucOX (nuOXPHOS transcripts) was −0.160. For the same compound, the ROS (reactive oxygen species) was 0.279.
`O=C(O[C@@H]1Cc2c(O)cc(O)cc2O[C@@H]1c1cc(O)c(=O)c2c(O)c(O)cc([C@H]3Oc4cc(O)cc(O)c4C[C@H]3OC(=O)c3cc(O)c(O)c(O)c3)c2c1)c1cc(O)c(O)c(O)c1` [theaflavin digallate] was tested, and the MTT [1] was −0.518, the ΔΨm [2] was −0.326 and the mitoOX (mtOXPHOS transcripts) was 0.275. For the same compound, the GE-HTS (OXPHOS gene expression) was 0.783, the Viability (C2C12 myotubes) was −1.408 and the nucOX (nuOXPHOS transcripts) was 0.948. For the same compound, the ROS (reactive oxygen species) was 0.718.
In the case of `CC[C@]1(O)C[C@@H]2CN(CCc3c([nH]c4ccccc34)[C@@](C(=O)OC)(c3cc4c(cc3OC)N(C)[C@H]3[C@@](O)(C(=O)OC)[C@H](OC(C)=O)[C@]5(CC)C=CCN6CC[C@]43[C@@H]65)C2)C1` [vinblastine sulfate, reference compound], the cyt c (cytochrome c; composite Z-score vs mock-treated (DMSO) wells, concentration of each compound in μM) is reported as −1.078, the “mito-OXPHOS Z” value (mtOXPHOS transcripts; [6]) is reported as 1.64 and the GEHTS_Zscore (OXPHOS gene expression; [7]) is reported as 3.171. For the same compound, the GEHTS_Zscore (OXPHOS gene expression; [8]) was 3.171, the OXPHOS expression (OXPHOS gene expression) was “boost OXPHOS expression” and the “dose at which OXPHOS expression increased” value (OXPHOS gene expression) was 2 µM. The “nucOXPHOS Z” value (nuOXPHOS transcripts; [6]) was 2.09, the “ROS Zscore” value (reactive oxygen species; [7]) was −1.327 and the “ROS Zscore” value (reactive oxygen species; [8]) was −1.327. The ROS levels (reactive oxygen species) was “suppressing ROS levels” and the “dose at which ROS levels decreased” value (reactive oxygen species) was 2 µM.
For Thimerosal [reference compound], the MTT [1] was −6.206, the ΔΨm [2] was −3.315 and the “mito-OXPHOS Z” value (mtOXPHOS transcripts) was 10.41. The Viability (C2C12 myotubes) was −5.590, the “nucOXPHOS Z” value (nuOXPHOS transcripts) was −1.20 and the ROS (reactive oxygen species) was −3.880.
